The values that follow come from paper PMC5118709, “Identification of Polo-like kinase 1 interaction inhibitors using a novel cell-based assay” (Scientific Reports, 2016).

Data set [1] has as its system HeLa cells. The data set can be described thus: mitotic index assay (phospho-Histone H3) in HeLa cells. The data set is classed as cell-based. The settings on record: 10-25 μM, 7 h.
Data set [2] concerns HeLa cells. The data set can be described thus: mitotic defect phenotypes by immunofluorescence. The data set is classed as cell-based. To be noted: 10 μM, 7 h. The gist of the method:
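HeLa cells on poly-L-lysine coverslips treated 7 h, fixed in 4% formaldehyde/PHEM at 37 °C. Immunostained for pericentrin and α-tubulin with DAPI for DNA; spindle organisation scored by fluorescence microscopy against DMSO controls.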

A further data set in a line: stability by LC-MS. Type of data set: physicochemical. The text has this: Based on these observations, we speculated that the sulfone undergoes a β-elimination of the benzoate subunit to generate a vinyl sulfone which is responsible for the biological activity of this class of compounds. Using LCMS, we evaluated the stability of Cpd 16 in the buffer used in the FP assay. […] The sulfone β-elimination is a base-catalysed process and the buffer used in the assay is basic enough to allow the reaction to occur. Under neutral or acidic conditions, the compound was very stable and no fragmentation was observed.
Cpd 161, which is 2-((6-methyl-4-(trifluoromethyl)pyridin-2-yl)sulfonyl)ethyl 3-chlorobenzoate (400 μM final concentration), was added to 500 μl of FP buffer (previously described).

A further data set addresses GST-PBD367-603 of Plk1 (Homo sapiens, UniProt P53350). Nature of the data set: fluorescence polarization assay PBD-phosphopeptide.

“And” between values parts separate entries of the source, which are not always exact repeats. Equal entries are not always repeated.

GST-PBD367-603 of Plk1, sequence (P53350 367-603): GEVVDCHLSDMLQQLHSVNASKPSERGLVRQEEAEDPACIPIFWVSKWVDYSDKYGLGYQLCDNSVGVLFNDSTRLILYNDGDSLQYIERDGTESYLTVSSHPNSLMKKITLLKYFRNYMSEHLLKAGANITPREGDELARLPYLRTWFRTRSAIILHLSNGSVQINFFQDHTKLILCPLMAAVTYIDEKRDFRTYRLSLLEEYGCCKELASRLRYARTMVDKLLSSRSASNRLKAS
Method for GST-PBD367-603 of Plk1: In this assay, an optimal phosphopeptide for PBD binding is coupled with a FITC fluorophore and its binding to purified recombinant PBD of Plk1 is monitored by the change in polarization of incident light.
The FP buffer was composed of 10 mM Tris pH 8.0, 50 mM NaCl, 1 mM EDTA, 20% glycerol and 0.1% NP-40. The peptide (final concentration 10 nM) was always added to the wells of non-binding, black, 384-well plates, 1 hour after the addition of the protein with the buffer (+/− treatment, 10% DMSO). […] EC65s were used to perform the competitive assays with the non-labeled peptides and with the inhibitors. FP Inhibition was calculated with the formula: 100 − [((mPsample − mPfree peptide)\(mPDMSO − mPfree peptide)) × 100]. […] (Map peptide), and corresponding non-labeled peptides are identical but without FITC in N-terminal. […] Inhibition curves were fitted with GraphPad (Prism software).

With `Cc1cc(C(F)(F)F)cc(S(=O)(=O)CCOC(=O)c2cccc(Cl)c2)n1` [Cpd 16, 2-((6-methyl-4-(trifluoromethyl)pyridin-2-yl)sulfonyl)ethyl 3-chlorobenzoate], the “Mitotic index (%)” value in the data set on HeLa cells [1] was 15.73%. In the data set with HeLa cells [2], the “2 > pericentrin foci (percentage of cells)” value amounted to 23 ± 11% and the “Disorganized spindles (percentage of cells)” value was 58 ± 13%. In the data set “stability by LC-MS” (approximate pH 8.0, a few minutes (approximately 10 minutes)), the “stability in the FP buffer” value is listed as “fragmentation occurred”. For the same molecule, in the data set “stability by LC-MS” (neutral or acidic conditions), the stability result is “very stable”. For the same molecule, at GST-PBD367-603 of Plk1 (FP - IC50 (μM), Table S3), half-maximal inhibition (IC50) was put at 18.4 ± 10.2 µM. On GST-PBD367-603 of Plk1 (IC50 in FP, GST-PBD367-603 38 nM, 1 h pre-incubation, FITC-phosphopeptide 10 nM, Fig. 4C), the IC50 is ~16 µM and 16 µM.

As usually defined, the IC50 is the concentration that inhibits the measured activity by half. High values mean a need for much substance, low ones inhibition by little substance.
